Where two headings read alike, the source gives them in different places.
Experiments:
HCV-Luc = HCV-Luc infection assay; format: cell-based; settings: for EC50: Hepatitis C virus
Huh7.5.1 cells = assay: ATPLite cytotoxicity assay
Description: (§1) EC50 was generated using the HCV-Luc infection assay and IC50 using the ATPLite assay.
(§2) EC50 was generated using the HCV-Luc infection assay and TC50 using the ATPLite assay.
(§3) The cytotoxicity of the compounds was further evaluated in HepG2 cells and primary human hepatocytes.

[1] = ATPLite cytotoxicity assay; settings: human
Description: as §1, §2, §3

Compound	CC50 (Huh7.5.1 cells; human) [µM]	EC50 (HCV-Luc; Table 3, read-out: EC50) [µM]	Selective Index (HCV-Luc; Table 3)	other results
CN1CCCN(C(c2ccccc2)c2ccc(Cl)cc2)CC1 (stereo not shown)	–	–	–	EC50 (HCV-Luc; Table 5, read-out: EC50): 0.057 ± 0.008 µM; Selective Index (HCV-Luc; Table 5): 225; CC50 (Huh7.5.1 cells; Table 5): 12.8 ± 0.1 µM
Clc1ccc(C(c2ccc(Cl)cc2)N2CCCCC2)cc1	69 ± 0.9	–	–	EC50 (HCV-Luc; Table 5, read-out: EC50): 17.4 ± 2.8 µM; Selective Index (HCV-Luc; Table 5): 4
Clc1ccc(C(c2ccc(Cl)cc2)N2CCOCC2)cc1	62.1 ± 2.8	–	–	EC50 (HCV-Luc; Table 5, read-out: EC50): 29.7 ± 0.1 µM; Selective Index (HCV-Luc; Table 5): 2
CN1CCC(N(c2ccccc2)c2ccccc2)CC1	56.8 ± 8.2	–	–	EC50 (HCV-Luc; Table 5, read-out: EC50): 2.72 ± 1.13 µM; Selective Index (HCV-Luc; Table 5): 21
CN1CCC(N(c2ccccc2)c2ccc(OC(C)(C)C)cc2)CC1	78.7 ± 0.6	–	–	EC50 (HCV-Luc; Table 5, read-out: EC50): 0.354 ± 0.097 µM; Selective Index (HCV-Luc; Table 5): 222
c1ccc(C(c2ccccc2)C2CCNCC2)cc1	–	–	–	EC50 (HCV-Luc; Table 5, read-out: EC50): 0.072 ± 0.002 µM; Selective Index (HCV-Luc; Table 5): 451; CC50 (Huh7.5.1 cells; Table 5): 32.5 ± 0.1 µM
c1ccc(C(c2ccccc2)c2ccncc2)cc1	65.1 ± 2.1	–	–	EC50 (HCV-Luc; Table 5, read-out: EC50): > 31.5 µM; Selective Index (HCV-Luc; Table 5): <2
CCN1CCN(C2c3ccccc3-c3ccc(Br)cc32)CC1 (stereo not shown)	53.1 ± 1.3	–	–	EC50 (HCV-Luc; Table 5, read-out: EC50): 1.68 ± 0.45 µM; Selective Index (HCV-Luc; Table 5): 32
CC(C)(C)OC(=O)NCCOCCOCCOCCOCCN1CCN(C(c2ccccc2)c2ccc(Cl)cc2)CC1 (racemic) [(CH2CH2O)4(CH2)2NHC(═O)Ot-Bu (R,S), tert-Butyl (14-(4-((4-chlorophenyl)(phenyl)methyl)piperazin-1-yl)-3,6,9,12-tetraoxatetradecyl)carbamate]	19 ± 4	0.199 ± 0.03	95	–
CC(=O)NCCOCCOCCOCCOCCN1CCN(C(c2ccccc2)c2ccc(Cl)cc2)CC1 (racemic) [(CH2CH2O)4CH2CH2NHC(═O)Me (R,S), N-(14-(4-((4-Chlorophenyl)(phenyl)methyl)piperazin-1-yl)-3,6,9,12-tetraoxatetradecyl)acetamide]	> 100	0.17 ± 0.022	>588	–
NCCOCCN1CCN(C(c2ccccc2)c2ccc(Cl)cc2)CC1 (racemic) [CH2CH2OCH2CH2NH2 (R,S), 2-(2-(4-((4-Chlorophenyl)(phenyl)methyl)piperazin-1-yl)ethoxy)ethanamine]	8.18	0.0048 ± 0.0011	1704	–
OCCOCCN1CCN(C(c2ccccc2)c2ccc(Cl)cc2)CC1 (racemic) [CH2CH2OCH2CH2OH (R,S), 2-(2-(4-((4-Chlorophenyl)(phenyl)methyl)piperazin-1-yl)ethoxy)ethanol]	–	0.032 ± 0.011	–	Selective Index (HCV-Luc): 1331; CC50 ([1]; Huh7.5.1 cells): 42.6 ± 1.8 µM
NC(=O)COCCN1CCN(C(c2ccccc2)c2ccc(Cl)cc2)CC1 (racemic) [CH2CH2OCH2CONH2 (R,S), 2-(2-(4-((4-Chlorophenyl)(phenyl)methyl)piperazin-1-yl)ethoxy)acetamide]	> 100	0.103 ± 0.052	>910	–
O=C(O)COCCN1CCN(C(c2ccccc2)c2ccc(Cl)cc2)CC1 (racemic) [CH2CH2OCH2COOH (R,S), 2-(2-(4-((4-Chlorophenyl)(phenyl)methyl)piperazin-1-yl)ethoxy) acetic acid]	–	> 31.6	–	–
COc1ccc(CN2CCN([C@@H](c3ccccc3)c3ccc(Cl)cc3)CC2)c(OC)c1 [2-4-dimethoxybenzyl (S), (S)-1-((4-Chlorophenyl)(phenyl)methyl)-4-(2,4-dimethoxybenzyl)piperazine]	38.4 ± 4.2	0.456 ± 0.235	84	–
O=C1c2ccccc2C(=O)N1CCOCCN1CCN(C(c2ccccc2)c2ccc(Cl)cc2)CC1 (stereo not shown) [2-(2-(2-(4-((4-Chlorophenyl)(phenyl)methyl)piperazin-1-yl)ethoxy)ethyl)isoindoline-1,3-dione]	> 100	1.54 ± 0.57	>65	–
COc1ccccc1CN1CCC(N(CCc2ccccc2)Cc2ccccc2)CC1 [2-Methoxybenzyl, N-Benzyl-1-(2-methoxybenzyl)-N-phenethylpiperidin-4-amine]	–	–	–	EC50 (HCV-Luc): 0.64 µM; CC50 [1]: 15.2 µM
c1ccc(CCN2CCC(N(CCc3ccccc3)Cc3ccccc3)CC2)cc1 [2-Phenylethyl, N-Benzyl-N,1-diphenethylpiperidin-4-amine]	–	–	–	EC50 (HCV-Luc; Table 6, read-out: EC50): 16.2 µM; CC50 [1]: > 100 µM
CC(C)CN1CCN([C@H](c2ccccc2)c2ccc(Cl)cc2)CC1 [2-methyl-1-propyl (R), (R)-1-((4-Chlorophenyl)(phenyl)methyl)-4-isobutylpiperazine]	58.2 ± 7.2	0.232 ± 0.061	251	–
CC(C)CN1CCN([C@@H](c2ccccc2)c2ccc(Cl)cc2)CC1 [2-methyl-1-propyl (S), (S)-1-((4-Chlorophenyl)(phenyl)methyl)-4-isobutylpiperazine]	51.7 ± 1.4	0.102 ± 0.018	507	–
COc1cccc(CN2CCC(N(CCc3ccccc3)Cc3ccccc3)CC2)c1 [3-Methoxybenzyl, N-Benzyl-1-(3-methoxybenzyl)-N-phenethylpiperidin-4-amine]	–	–	–	EC50 (HCV-Luc; Table 6, read-out: EC50): 1.57 µM; CC50 [1]: 45.2 µM

Compound	CC50 (Huh7.5.1 cells; human) [µM]	EC50 (HCV-Luc; Table 3, read-out: EC50) [µM]	Selective Index (HCV-Luc; Table 3)	other results
Brc1ccc(CN2CCC(N(CCc3ccccc3)Cc3ccccc3)CC2)cc1 [4-Bromobenzyl, N-Benzyl-1-(4-bromobenzyl)-N-phenethylpiperidin-4-amine]	–	–	–	EC50 (HCV-Luc; Table 6, read-out: EC50): 4.33 µM; CC50 [1]: > 100 µM
Clc1ccc(CN2CCC(N(CCc3ccccc3)Cc3ccccc3)CC2)cc1 [4-Chlorobenzyl, N-Benzyl-1-(4-chlorobenzyl)-N-phenethylpiperidin-4-amine]	–	–	–	EC50 (HCV-Luc; Table 6, read-out: EC50): 9.24 µM; CC50 [1]: > 100 µM
N#Cc1ccc(CN2CCC(N(CCc3ccccc3)Cc3ccccc3)CC2)cc1 [4-Cyanobenzyl, 4-((4-(Benzyl(phenethyl)amino)piperidin-1-yl)methyl)benzonitrile]	–	–	–	EC50 (HCV-Luc; Table 6, read-out: EC50): 5.86 µM; CC50 [1]: 100 µM
CC(=O)N1CCN([C@@H](c2ccccc2)c2ccc(Cl)cc2)CC1 [Acetyl (S), (S)-1-(4-((4-Chlorophenyl)(phenyl)methyl)piperazin-1-yl)ethanone]	91.3 ± 1	22 ± 3.2	4	–
[2H]C([2H])([2H])N1CCN([C@H](c2ccccc2)c2ccc(Cl)cc2)CC1 [CD3 (R), (R)-1-((4-Chlorophenyl)(phenyl)methyl)-4-methyl(d3)piperazine]	46.7 ± 0.4	0.04 ± 0.017	–	–
[2H]C([2H])([2H])N1CCN([C@@H](c2ccccc2)c2ccc(Cl)cc2)CC1 [CD3 (S), (S)-1-((4-Chlorophenyl)(phenyl)methyl)-4-methyl(d3)piperazine]	77.9 ± 3.1	0.063 ± 0.025	–	–
[2H]C([2H])([2H])CN1CCN([C@H](c2ccccc2)c2ccc(Cl)cc2)CC1 [CD3CH2 (R), (R)-1-((4-Chlorophenyl)(phenyl)methyl)-4-ethyl(2,2,2-d3)piperazine]	81.5 ± 0.5	–	–	–
[2H]C([2H])([2H])CN1CCN([C@@H](c2ccccc2)c2ccc(Cl)cc2)CC1 [CD3CH2 (S), (S)-1-((4-Chlorophenyl)(phenyl)methyl)-4-ethyl(2,2,2-d3)piperazine]	71.3 ± 11.4	–	–	–
FC(F)(F)CN1CCN([C@H](c2ccccc2)c2ccc(Cl)cc2)CC1 [CF3CH2 (R), (R)-1-((4-Chlorophenyl)(phenyl)methyl)-4-(2,2,2-trifluoroethyl)piperazine]	> 100	> 31.6	–	–
FC(F)(F)CN1CCN([C@@H](c2ccccc2)c2ccc(Cl)cc2)CC1 [CF3CH2 (S), (S)-1-((4-Chlorophenyl)(phenyl)methyl)-4-(2,2,2-trifluoroethyl)piperazine]	> 100	> 31.6	–	–
OCCOCCN1CCN(C(c2ccc(Cl)cc2)c2ccc(Cl)cc2)CC1 [Cl, Cl, CH2CH2OCH2CH2OH, 2-(2-(4-(bis(4-Chlorophenyl)methyl)piperazin-1-yl)ethoxy)ethanol]	–	–	–	EC50 (HCV-Luc): 0.0055 ± 0.0022 µM
Clc1ccc([C@H](c2ccccc2)N2CCN(C3CCCCC3)CC2)cc1 [Cyclohexyl (S), (S)-1-((4-Chlorophenyl)(phenyl)methyl)-4-cyclohexylpiperazine]	12.3 ± 0.3	0.177 ± 0.037	69	–
Clc1ccc([C@H](c2ccccc2)N2CCN(C3CCCC3)CC2)cc1 [Cyclopentyl (S), (S)-1-((4-Chlorophenyl)(phenyl)methyl)-4-cyclopentylpiperazine]	30.4 ± 2.8	0.019 ± 0.006	1600	–
CCN1CCN([C@H](c2ccccc2)c2ccc(Cl)cc2)CC1 [Et (R), (R)-1-((4-Chlorophenyl)(phenyl)methyl)-4-ethylpiperazine]	37.9 ± 3.3	–	–	–
Clc1ccc([C@@H](c2ccccc2)N2CCNCC2)cc1 [H (R), (R)-1-((4-Chlorophenyl)(phenyl)methyl)piperazine]	12.5 ± 1.4	0.032 ± 0.022	391	–
Clc1ccc([C@H](c2ccccc2)N2CCNCC2)cc1 [H (S), (S)-1-((4-Chlorophenyl)(phenyl)methyl)piperazine]	9.31 ± 0.04	0.034 ± 0.012	0274	–
CC(C)N1CCN([C@@H](c2ccccc2)c2ccc(Cl)cc2)CC1 [i-Pr (S), (S)-1-((4-Chlorophenyl)(phenyl)methyl)-4-isopropylpiperazine]	32.4 ± 3.8	0.013 ± 0.004	2492	–
CCCCN1CCN([C@H](c2ccccc2)c2ccc(Cl)cc2)CC1 [n-Bu (R), (R)-1-Butyl-4-((4-chlorophenyl)(phenyl)methyl)piperazine]	40.8 ± 0.4	0.195 ± 0.084	309	–
CCCCN1CCN([C@@H](c2ccccc2)c2ccc(Cl)cc2)CC1 [n-Bu (S), (S)-1-Butyl-4-((4-chlorophenyl)(phenyl)methyl)piperazine]	31.1 ± 4.2	0.042 ± 0.023	740	–
CCCN1CCN([C@H](c2ccccc2)c2ccc(Cl)cc2)CC1 [n-Pr (R), (R)-1-((4-Chlorophenyl)(phenyl)methyl)-4-propylpiperazine]	48.5 ± 1.1	0.024 ± 0.005	2021	–
CCCN1CCN([C@@H](c2ccccc2)c2ccc(Cl)cc2)CC1 [n-Pr (S), (S)-1-((4-Chlorophenyl)(phenyl)methyl)-4-propylpiperazine]	39.7 ± 0.9	0.032 ± 0.018	1241	–
